Data reported in patent publication US8791158B2, “Methods of treating meibomian gland dysfunction” (GTX, Inc., priority 2010, dated 2014).

How the values were obtained:
[1] = system: acute, orchiectomized (ORX) rabbit model; assay: Tear fatty acid composition (palmitate:stearate ratio) after Compound 2 or TP, Example 3; type: in vivo; settings: ORX rabbits; for Tear palmitate:stearate ratio after 4 week washout: then untreated 4 weeks
From the text: The goal of this study was to compare the effect of Compound 2 to testosterone propionate (TP) on tear composition in an acute, orchiectomized (ORX) rabbit model.
Fifteen New Zealand white rabbits weighing approximately 3 lbs were allowed to acclimate for 4 weeks before the start of the study. Animals were weighed on day 0 of the study, randomized according to body weight and allotted to the following dose groups:
Pre-dose tear and blood samples were collected. Animals from groups 2-5 were to premedicated with glycopyrrolate (0.02 mg/kg) and then anesthesia was induced with a combination of ketamine (15 mg/kg): medetomidine (0.25 mg/kg).
Anesthesia was maintained with isoflurane (1 liter/hr). Orchiectomy was performed using a scrotal incision. Animals were revived from anesthesia using atipamezole (1 mg/kg) SQ. Analgesia was provided with buprenorphine (0.05 mg/kg) Immediately after the animals had recovered from anesthesia, they received their first dose with the appropriate test articles as indicated above.
(§1) Drug dosing was done once daily for 14 days. Blood was collected at 60 minutes post administration of the last dose of drug and plasma separated for HPLC analysis of parent drug concentrations.
Tears were collected using Schirmer tear strips (Alcon, Tex.) on day 0 before surgery, 24 hours after the last administration of drug (day 15) and also at 42 days (6 weeks after start of study). The tears were stored at −80° C. prior to lipid analysis.
Lipids were hydrolyzed, extracted from the Schirmer strips, derivatized, and subjected to gas chromatography with flame ionization detector (GCFID) to evaluate the lipid composition.
The samples were evaluated for the presence of 28 saturated and unsaturated fatty acids that included methyl caprate (C10:0), methyl laurate (C12:0), methyl 11-dodecenoate (C12:1), methyl myristate (C14:0), methyl myristoleate (C14:1), methyl palmitate (C16:0), methyl palmitoleate (C16:1), methyl stearate (C18:0), methyl oleate (C18:1), methyl vaccenate (C18:1), methyl linoleate (C18:2), methyl gamma linoleate (C18:3), methyl linoleate (C18:3), methyl arachidate (C20:0), methyl 11-eicosenoate (C20:1), methyl 11,14 eicosadinoate (C20:2), methyl 8,11,14 eicosatrienoate (C20:3), methyl eicosapentaenoate (C20:5), methyl behenate (C22:0), methyl erucate (C22:1), methyl 13,16 docosaenoate (C22:2), methyl docosatetraenoate (C22:4), methyl docosapentaenoate (C22:5), methyl docosahexaenoate (C22:6), methyl lignocerate (C24:0), and methyl nervonate (C24:1).
The area under the curve for each individual peak was determined using GC ChemStation software. […] These samples were then washed with a saturated solution of NaCl+0.1% formic acid (FA). […] These samples were all in the predose tear group. Two more samples from the predose group and one sample from Vehicle Intact treated group had small but clear and well to separated peaks that were included in the analysis.
(§2) To normalize for the tear content, the lipid composition was expressed as a ratio of the lipid that was most affected by castration (palmitate) to one which remained relatively constant (stearate). Blood was also collected on day 15 (24 hours after last drug administration) of the study, plasma separated and analyzed for Compound 2.
The last dose of drug or vehicle was administered on day 15 of the study Animals were left untreated for 4 weeks (washout period) before tear samples were collected again on Schirmer tear strips and analyzed as indicated above.

[2] = Plasma concentration of Compound 2 after topical or subcutaneous dosing, Example 3; type: in vivo, rabbit; settings: one hour after last dose, LCMS
Procedure: as §1, §2
Systemic exposures after topical and subcutaneous administration were determined in peripheral blood samples collected one hour after drug administration on the last day of the study. Plasma concentrations of Compound 2 were measured using LCMS. Mean plasma concentrations of Compound 2 following topical administration were 1177±398.72 nM, while mean levels were 1210±311.93 nM in animals that received subcutaneous (SQ) doses.

C[C@](O)(COc1ccc(C#N)c(F)c1)C(=O)Nc1ccc(C#N)c(C(F)(F)F)c1 [Compound 2, (S)—N-(4-cyano-3-(trifluoromethyl)phenyl)-3-(4-cyano-3-fluorophenoxy)-2-hydroxy-2-methylpropanamide]
Increase of tear palmitate:stearate ratio relative to intact animals ([1]; 2.5 mg/kg, 14 days): two times that of intact animals | Tear palmitate:stearate ratio after 4 week washout ([1]; SQ 2.5 mg/kg for two weeks): 1.47±0.172 | Tear palmitate:stearate ratio after 4 week washout ([1]; topical 2.5 mg/kg for two weeks): 1.66±0.426 | concentration at 1 h ([2]; rabbit, plasma, subcutaneous 2.5 mg/kg): 1210 ± 312 nM | concentration at 1 h ([2]; rabbit, plasma, topical 2.5 mg/kg): 1180 ± 399 nM | concentration at 1 h ([2]; subcutaneous 2.5 mg/kg): 1210 nM | concentration at 1 h ([2]; topical 2.5 mg/kg): 1177 nM
